Test results reported in patent publication US20260248881A1, “PHARMACEUTICAL COMPOSITION COMPRISING FOXM1 INHIBITOR AND IMMUNE CHECKPOINT INHIBITOR FOR PREVENTING OR TREATING CANCER” (National Cancer Center, priority 2022, published 2026).

System: FOXM1 and PD-L1
Assay: Immunoblotting of FOXM1 and PD-L1 after FDI-6 or RCM1 treatment
Assay type: cell-based, human
Settings: lung cancer cell line (PC9) and colorectal cancer cell line (SW480)
Method: Human lung cancer cell lines (H1299, PC9), colorectal cancer cell lines (HCT116, SW480), and brain tumor cell lines (U118) were purchased from the American Type Culture Collection (Manassas, VA, USA). H1299, PC9, U118, and SW480 cells were cultured in Roswell Park Memorial Institute (RPMI) medium supplemented with 10% FBS and 1% penicillin/streptomycin, and HCT116 cells were cultured in McCoy's 5A medium supplemented with 10% FBS and 1% penicillin/streptomycin. Cells were maintained at 37° C. in a humidified incubator with 5% CO2.
After washing, appropriate secondary antibodies conjugated to horseradish peroxidase were bound to the membrane, and protein bands were detected using a chemiluminescence kit (Thermo Fisher Scientific, Carlsbad, CA, USA).

Nc1c(C(=O)Nc2ccc(F)cc2)sc2nc(-c3cccs3)cc(C(F)(F)F)c12 [FDI-6]
FOXM1 and PD-L1 expression: significantly decreased
